Data on two compounds can be found in DBAASP.

Structures are written as SMILES. Converted amounts (≈) assume the structure as drawn.

Common to all, as to assay: ≥ marks a high value that may be exact or a test limit, other limits are often not marked, values filed in µg/mL are converted to µM
The subject of experiment [1] is Escherichia coli ATCC 25922.
The test system of experiment [2] is Candida albicans ATCC 18804.
Experiment [3] relates to Staphylococcus aureus ATCC 25923.
The test system of experiment [4] is Staphylococcus aureus KCTC 1621.
The test system of experiment [5] is Pasteurella multocida C48-3.
Experiment [6] concerns Salmonella typhimurium SL1344.
Experiment [7] concerns Salmonella enterica subsp. enterica serovar Choleraesuis C78-1.
The test system of experiment [8] is Pseudomonas aeruginosa ATCC 15692.
Experiment [9] relates to Staphylococcus epidermidis LY8.
The subject of experiment [10] is Streptococcus pyogenes KCTC 3096.
Experiment [11] relates to Pseudomonas aeruginosa KCTC 1637.
Experiment [12] deals with Bacillus subtilis CICC 24434.
In experiment [13] the test system is Proteus vulgaris KCTC 2433.
In experiment [14] the test system is Salmonella typhimurium CCARM 8009.
Experiment [15] has as its system Escherichia coli CCARM 1229.
Experiment [16] has as its system Salmonella typhimurium CCARM 8013.
In experiment [17] the test system is Salmonella typhimurium KCTC 1926.
Experiment [18] relates to Escherichia coli ATCC 12795.
For another experiment, the system named is Escherichia coli E44813.
For a further experiment, the system named is Pasteurella multocida.
The test system of experiment [19] is Bacillus subtilis KCTC 1918.
For experiment [20], the system named is Listeria monocytogenes CICC 21533.
In experiment [21] the test system is Escherichia coli KCTC 1682.
In experiment [22] the test system is Escherichia coli CCARM 1238.

A word on the MIC: it is the smallest concentration in the dilution series that meets the test's criterion for growth inhibition. As to `CC[C@H](C)[C@H](NC(=O)[C@H](C)NC(=O)[C@H](CCC(=O)O)NC(=O)[C@H](CO)NC(=O)[C@@H](N)Cc1ccccc1)C(=O)N[C@@H](CCCCN)C(=O)N[C@@H](CCCCN)C(=O)N[C@H](C(=O)N[C@H](C(=O)N[C@@H](CC(=O)O)C(=O)N[C@@H](Cc1ccccc1)C(=O)N[C@@H](CC(C)C)C(=O)NCC(=O)N[C@@H](CCC(=O)O)C(=O)NCC(=O)N[C@@H](CC(C)C)C(=O)N[C@@H](Cc1ccccc1)C(=O)N[C@@H](CC(=O)O)C(=O)N[C@H](C(=O)N[C@H](C(=O)N[C@@H](CCCCN)C(=O)N[C@@H](CCCCN)C(=O)N[C@H](C(=O)N[C@@H](C)C(=O)N[C@@H](CCC(=O)O)C(=O)N[C@@H](CO)C(=O)N[C@@H](Cc1ccccc1)C(=O)O)[C@@H](C)CC)[C@@H](C)CC)[C@@H](C)CC)[C@@H](C)CC)[C@@H](C)CC` [FSEAIKKIIDFLGEGLFDIIKKIAESF], the MIC is 128 µM (≈ 393 µg/mL) in experiment [1], at least 128 µM in experiment [2] and above 128 µM in experiment [3].
On to `CC[C@H](C)[C@H](NC(=O)[C@@H](NC(=O)[C@@H](N)CCCN=C(N)N)[C@@H](C)CC)C(=O)N[C@@H](CC(=O)O)C(=O)N[C@@H](CC(C)C)C(=O)N[C@@H](CC(C)C)C(=O)N[C@@H](Cc1c[nH]c2ccccc12)C(=O)N[C@@H](CCCN=C(N)N)C(=O)N[C@H](C(=O)N[C@@H](CCCN=C(N)N)C(=O)N[C@@H](CCCN=C(N)N)C(=O)N1CCC[C@H]1C(=O)N[C@@H](CCC(N)=O)C(=O)N[C@@H](CCCCN)C(=O)N1CCC[C@H]1C(=O)N[C@@H](CCCCN)C(=O)N[C@@H](Cc1ccccc1)C(=O)N[C@H](C(=O)N[C@H](C(=O)N[C@H](C(=O)N[C@@H](Cc1c[nH]c2ccccc12)C(=O)N[C@H](C(=O)N[C@@H](CCCN=C(N)N)C(=O)O)C(C)C)C(C)C)[C@@H](C)O)C(C)C)C(C)C` [RIIDLLWRVRRPQKPKFVTVWVR], for which the MIC in experiment [4] came to 3.12 µM (≈ 9.26 µg/mL); in experiment [5] it was 1.05 µM (≈ 3.12 µg/mL); in experiment [6], 1.05 µM (≈ 3.12 µg/mL); in experiment [7], 0.527 µM (≈ 1.56 µg/mL); in experiment [8] it was 8 µM (≈ 23.7 µg/mL); in [9], 8.44 µM (≈ 25 µg/mL). Moreover, the MIC in [10] was 1.56 µM (≈ 4.62 µg/mL); in experiment [11], 1.56 µM (≈ 4.62 µg/mL); in experiment [12], 0.527 µM (≈ 1.56 µg/mL); in experiment [13] it was 16 µM (≈ 47.4 µg/mL); in [1] it was 4 µM (≈ 11.9 µg/mL); in experiment [14], 4 µM (≈ 11.9 µg/mL). Also, the MIC in experiment [15] came out at 4 µM (≈ 11.9 µg/mL); in experiment [16], 4 µM (≈ 11.9 µg/mL); in [17], 1.77 µM (≈ 5.23 µg/mL); in experiment [18] it was 0.4 µM (≈ 1.19 µg/mL); against Escherichia coli E44813 it was 8.44 µM (≈ 25 µg/mL); against Pasteurella multocida it was 6.8 µM (≈ 20.1 µg/mL). Further, the MIC was 1.56 µM (≈ 4.62 µg/mL) in experiment [19]; at least 42.2 µM in experiment [20]; 0.0165 µM (≈ 0.0489 µg/mL) in [3]; 1.56 µM (≈ 4.62 µg/mL) in experiment [21]; 2 µM (≈ 5.93 µg/mL) in experiment [22].
